Measured values from patent publication US8779092B2, “Metastasis-specific peptides and their diagnostic and therapeutic applications” (Universita Degli Studi di Torino, priority 2006, dated 2014).

System: primary cells of hepatic metastasis
Experiment: Binding experiments on primary cells
Set-up: species or system human
Conditions: for binding of phage clone to primary hepatic metastasis cells: compared to normal liver of the same patient; for binding of phage clone to primary hepatic metastasis cells, summary over samples: all tested patient samples
Protocol: Samples were processed immediately after surgical removal, in order to disaggregate the tissues and extract single cells on which to perform the experiments. All the manipulations were performed under laminar flux in sterility. Samples were chopped with a scalpel in a small volume of PBS. The suspension, collected in PBS, was centrifuged for 3 minutes at 100 rpm at room temperature and the pellet was resuspended in 5 ml of collagenase (0.25% weight/volume in DMEM). The digestion of the tissue fragments was done incubating this suspension for 2 hours at 37° C. while shaking. The sample was again centrifuged, to eliminate all the particulate under the cell size (lipid aggregates, cell portions) or also smaller cells, of hematopoietic origin. Pellet was washed twice in PBS. Cells were filtered on filters with a diameter of 45 μm, counted in Burker chamber and resuspended at a concentration of 10^6/ml in DMEM/FCS/HEPES.
These assays were performed with an Input of 10^9 TU of each clone, on cells from the hepatic metastasis cell line (target) and on cells from normal liver (negative control). The Output of these experiments was normalized on binding to an insertless phage, fd-tet, giving a measure of the unspecific interaction due to the phage itself. The binding increase was evaluated as ratio between normalized Output of the target and normalized Output of the negative control. All the experiments were repeated at least 3 times, when possible for material availability.
To evaluate if the selected inserts were specific for ubiquitous surface determinants in human hepatic metastases, the 7 selected clones were tested on primary cells of hepatic metastasis, comparing to normal liver of the same patients. For these binding assays, samples from 9 patients were used (20, 21, 22, 25, 26, 27, 28, 31, 32), with the same conditions described for the cell lines.
In the first experiments, due to the low cell numbers, related to the set up phase of the purification procedure, the binding of only some clones was evaluated. In general, 3 assays have been performed for each sample. […] It is interesting to note that, in the experiments on fresh cells, binding increases are much higher than in those performed with the cultured cell lines.

Substance | binding of phage clone to primary hepatic metastasis cells (patient P#27) | binding of phage clone to primary hepatic metastasis cells (patient P#28) | binding of phage clone to primary hepatic metastasis cells, summary over samples
MRYALRS (listed as Homo sapiens) [SEQ ID NO. 2] | negative | negative | 
GIYRLRS ((6)..(6) May be fused with GST; listed as Homo sapiens) [SEQ ID NO. 6] |  |  | worked on all the samples
LRPGLRS (listed as Homo sapiens) [SEQ ID NO. 3] |  |  | worked on all the samples
GVYSLRS (listed as Homo sapiens) [SEQ ID NO. 7] |  |  | worked on all the samples
ARPGLRS (listed as Homo sapiens) [SEQ ID NO. 1] |  |  | worked on all the samples
